# Data published in EP4786466A1, “QUINAZOLINE DERIVATIVE, SALT THEREOF, AND PHARMACEUTICAL COMPOSITION COMPRISING SAME AS ACTIVE INGREDIENT” (Korea Research Institute of Chemical Technology, priority 2023, dated 2025).
# Read-outs that look alike come from different tables or passages of the source.
# Tests used:
# [1] = test system: pENSA; assay: pENSA level by immunofluorescence (described method: in vitro kinase analysis with GST-tag-MASTL and His-tag-ENSA); type: cell-based; conditions: for pENSA (%) Immunofluor ecense (1 µM): compound 1 µM
# Outline: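 In vitro kinase reaction using recombinant GST-tagged MASTL with His-tagged ENSA as substrate; phosphorylated ENSA (pENSA) serves as read-out of MASTL activity. Cell lines named: MCF7 breast cancer and MCF10A.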
# [2] = test system: MCF7 breast cancer cell lines; assay: Cell viability analysis, WST-8 assay, MCF7; conditions: Homo sapiens, MCF7, 72 h; for viability at 1 µM: read-out: Cell viability (%) WST-8, MCF7 (1 µM), compound 1 µM, 72 hours; for viability at 1.1 µM: read-out: Cell viability (%) WST-8, MCF7, footnote d: concentration 1.1 µM, 72 hours
# Method: (§1) MCF7 breast cancer cell lines and MCF10A normal breast cancer cell lines were treated with serial dilutions of the compounds of the present invention ranging from 1 µM to 15.63 nM for 72 hours. Cell viability was measured by the WST-8 assay (Cyto XTM cell viability assay kit; LPS solution, Daejeon, Korea) according to the manufacturer's instructions.
# [3] = test system: MCF10A normal breast cell lines; assay: Cell viability analysis, WST-8 assay, MCF10A; conditions: Homo sapiens, MCF-10A, 72 h
# Method: as §1
# [4] = target: T1, Recombinant GST-TAG-MASTL (Homo sapiens, UniProt Q96GX5); assay: HTRF-based kinase assay (HTRF KinEASE assay kit); type: biochemical; conditions: for activity at 1 µM: read-out: MASTL activity (%) HTRF (1 µM)
# T1 construct: GST; purchased Thermo Fisher Scientific
# T1 sequence (Q96GX5 1-879): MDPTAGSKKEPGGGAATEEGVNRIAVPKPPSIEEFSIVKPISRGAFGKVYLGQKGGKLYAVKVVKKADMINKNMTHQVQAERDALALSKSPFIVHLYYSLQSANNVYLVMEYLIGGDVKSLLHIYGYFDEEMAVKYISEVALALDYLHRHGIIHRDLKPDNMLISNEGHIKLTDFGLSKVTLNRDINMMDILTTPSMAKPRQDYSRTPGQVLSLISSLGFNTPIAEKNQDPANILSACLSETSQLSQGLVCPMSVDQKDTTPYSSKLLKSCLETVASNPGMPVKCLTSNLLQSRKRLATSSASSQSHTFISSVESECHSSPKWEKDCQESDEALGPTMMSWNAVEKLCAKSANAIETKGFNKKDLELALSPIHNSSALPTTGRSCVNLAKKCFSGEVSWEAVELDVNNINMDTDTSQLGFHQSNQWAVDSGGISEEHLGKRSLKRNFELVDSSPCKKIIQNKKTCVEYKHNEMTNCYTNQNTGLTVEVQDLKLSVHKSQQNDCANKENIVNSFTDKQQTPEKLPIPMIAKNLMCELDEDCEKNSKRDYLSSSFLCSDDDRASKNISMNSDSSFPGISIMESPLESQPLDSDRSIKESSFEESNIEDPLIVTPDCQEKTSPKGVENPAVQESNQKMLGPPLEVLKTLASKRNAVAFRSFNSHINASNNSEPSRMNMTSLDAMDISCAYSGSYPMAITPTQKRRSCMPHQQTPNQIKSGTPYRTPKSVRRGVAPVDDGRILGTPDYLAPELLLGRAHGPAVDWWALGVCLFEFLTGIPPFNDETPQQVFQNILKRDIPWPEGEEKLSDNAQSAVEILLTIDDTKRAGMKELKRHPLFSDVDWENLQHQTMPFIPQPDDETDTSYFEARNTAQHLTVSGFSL
# Excerpt: Recombinant GST-TAG-MASTL (Thermo Fisher Scientific, MA, USA) was used for HTRF-based kinase assays. The HTRF KinEASE assay kit (CisBio, MA, USA) was used according to the manufacturer's instructions.
# [5] = in vitro; conditions: human
# Method: as §1
# [6] = read-out: IC50(nM) Cell viability (MCF7)
# [7] = read-out: IC50(nM) Cell viability (MCF10A)
# [8] = HTRF, read-out: IC50(nM) MASTL activity
# [9] = read-out: IC50 Cell viability (MCF7)
# [10] = read-out: IC50 Cell viability (MCF10A)
SMILES,viability at 1 µM [2],"IC50 [4, 8]",activity at 1 µM ([4]; compound 1 µM),pENSA (%) Immunofluor ecense (1 µM) [1],viability at 1 µM ([5]; mcf10a cells),further results
"c1ccc2c(Nc3cc(C4CC4)[nH]n3)nc(Nc3cccc4[nH]ccc34)nc2c1 [compound 4da, N^4-(5-cyclopropyl-1H-pyrazol-3-yl)-N^2-(1H-indol-4-yl)quinazoline-2,4-diamine]",30.1%,309 nM,58.5%,,,"IC50 ([1]; unit µM, read-out: IC50 pENSA): 1.8 µM; IC50 [2, 6]: 702 nM; IC50 [3, 7]: 683 nM; viability at 1 µM [5]: 18.9%"
"c1ccc2c(Nc3cc(C4CC4)[nH]n3)nc(N3CC4CCC3CN4)nc2c1 (centres unmarked) [compound 20, 2-(2,5-diazabicyclo[2.2.2]octan-2-yl)-M-(5-cyclopropyl-1G-pyrazol-3-yl)quinazolin-4-amine trifluoroacetic acid]",5.5%,,,30.9%,3.9%,"IC50 ([1]; read-out: IC50(nM) pENSA): 0.0665 µM; IC50 [2, 6]: 150 nM; IC50 [3, 7]: 131 nM; IC50 [4]: 194 nM; activity at 1 µM [4]: 36.5%"
"O=S(=O)(c1ccc(F)cc1)N1CC2CC1CN2c1nc(Nc2cc(C3CC3)[nH]n2)c2ccccc2n1 (centres unmarked) [compound 15n, M-(5-cyclopropyl-1G-pyrazol-3-yl)-2-(5-((4-fluorophenyl)sulfonyl)-2,5-diazabicyclo[2.2.1]heptan-2-yl)quinazolin-4-amine]",,327 nM,32.4%,77.5%,,"viability at 1.1 µM [2]: 108%; IC50 [2, 9]: 3500 nM; IC50 [3, 10]: 1300 nM; viability at 1.1 µM ([5]; mcf10a cells): 63.9%"
"c1ccc2c(Nc3cc(C4CC4)[nH]n3)nc(Nc3cc(C4CC4)[nH]n3)nc2c1 [compound 4n, M^2,M^4-bis(5-cyclopropyl-1G-pyrazol-3-yl)quinazoline-2,4-diamine]",21.5%,,106%,92.8%,3.2%,"IC50 [2, 6]: 287 nM; IC50 [3, 7]: 116 nM"
"CCCS(=O)(=O)N1CC2CC1CN2c1nc(Nc2cc(C3CC3)[nH]n2)c2ccccc2n1 (centres unmarked) [compound 15j, M-(5-cyclopropyl-1G-pyrazol-3-yl)-2-(5-(propylsulfonyl)-2,5-diazabicyclo[2.2.1]heptan-2-yl)quinazolin-4-amine]",,284 nM,31.6%,65.2%,,"viability at 1.1 µM [2]: 104%; IC50 [2, 9]: 3200 nM; IC50 [3, 10]: 1300 nM; viability at 1.1 µM ([5]; mcf10a cells): 65.2%"
"NC(=O)Cc1ccc(Nc2nc(Nc3cc(C4CC4)[nH]n3)c3ccccc3n2)cc1 [compound 4u, 2-(4-((4-((5-cyclopropyl-1G-pyrazol-3-yl)amino)quinazolin-2-yl)amino)phenyl)acetamide]",64.8%,392 nM,30.5%,41.2%,25.5%,"IC50 [3, 7]: 718 nM"
"O=S(=O)(c1ccc(F)cc1F)N1CC2CC1CN2c1nc(Nc2cc(C3CC3)[nH]n2)c2ccccc2n1 (centres unmarked) [compound 15o, M-(5-cyclopropyl-1G-pyrazol-3-yl)-2-(5-((2,4-difluorophenyl)sulfonyl)-2,5-diazabicyclo[2.2.1]heptan-2-yl)quinazolin-4-amine]",,170 nM,20.3%,90.3%,,"viability at 1.1 µM [2]: 119%; IC50 [2, 9]: 3700 nM; IC50 [3, 10]: 2400 nM; viability at 1.1 µM ([5]; mcf10a cells): 92.6%"
"Nc1nc(Nc2cc(C3CC3)[nH]n2)c2ccccc2n1 [compound 4ca, N^4-(5-cyclopropyl-1H-pyrazol-3-yl)quinazoline-2,4-diamine]",,,,,,"viability at 1.25 µM ([2]; read-out: Cell viability (%) WST-8, MCF7, footnote a: concentration 1.25 µM, 72 hours): 43%; IC50 [2, 9]: 1700 nM; IC50 [3, 10]: 2800 nM; IC50 ([4]; HTRF, unit µM, read-out: IC50 MASTL activity): 1800 nM; activity at 10 µM ([4]; footnote b: concentration 10 µM, read-out: MASTL activity (%) HTRF): 37.4%; viability at 1.25 µM [5]: 99.1%"
"c1ccc2sc(-c3ccc(Nc4nc(Nc5cc(C6CC6)[nH]n5)c5ccccc5n4)cc3)nc2c1 [compound 4m, M^2-(4-(benzo[c]thiazol-2-yl)phenyl)-M^4-(5-cyclopropyl-1G-pyrazol-3-yl)quinazoline-2,4-diamine]",110%,,73%,88.8%,85.8%,
"CC(C)(C)OC(=O)NCCCNC(=O)c1ccc(Nc2nc(Nc3cc(C4CC4)[nH]n3)c3ccccc3n2)cc1 [4x, sdqs-butyl (3-(4-((4-((5-cyclopropyl-1G-pyrazol-3-yl)amino)quinazolin-2-yl)amino)benzamido)propyl)carbamate]",75.8%,,70.8%,185%,80%,
"O=C(O)c1ccc(Nc2nc(Nc3cc(C4CC4)[nH]n3)c3ccccc3n2)cc1 [compound 4r, 4-((4-((5-cyclopropyl-1G-pyrazol-3-yl)amino)quinazolin-2-yl)amino)benzoic acid]",98.8%,,,12%,84.2%,IC50 ([1]; read-out: IC50(nM) pENSA): 0.988 µM; activity at 1 µM [4]: 56.6%
"O=C(c1ccccc1)N1CC=C(c2nc(Nc3cc(C4CC4)[nH]n3)c3ccccc3n2)CC1 [compound 9a, (4-(4-((5-cyclopropyl-1G-pyrazol-3-yl)amino)quinazolin-2-yl)-3,6-dihydropyridin-1(2G)-yl)(phenyl)methanone]",63.8%,203 nM,45.5%,50.5%,49.7%,
"Cc1cc(Nc2nc(N3CC4CC3CN4C(=O)C(C)C)nc3ccccc23)n[nH]1 (centres unmarked) [compound 27c, 2-methyl-1-(5-(4-((5-methyl-1G-pyrazol-3-yl)amino)quinazolin-2-yl)-2,5-diazabicyclo[2.2.1]heptan-2-yl)propan-1-one]",103%,,102%,90.5%,46.7%,
"CCc1ccccc1C1=CCN(c2nc(Nc3cc(C4CC4)[nH]n3)c3ccccc3n2)CC1 [compound 6m, M-(5-cyclopropyl-1G-pyrazol-3-yl)-2-(4-(2-ethylphenyl)-3,6-dihydropyridin-1(2G)-yl)quinazolin-4-amine]",65.7%,,51.8%,97.1%,115%,
"CC(C)(C)OC(=O)Cc1ccc(Nc2nc(Nc3cc(C4CC4)[nH]n3)c3ccccc3n2)cc1 [compound 4q, sdqs-butyl 2-(4-((4-((5-cyclopropyl-1G-pyrazol-3-yl)amino)quinazolin-2-yl)amino)phenyl)acetate]",107%,,76.1%,53.6%,98.8%,
"CC(C)C(=O)N1CC2CC1CN2c1nc(Nc2cn[nH]c2)c2ccccc2n1 (centres unmarked) [compound 28c, 1-(5-(4-((1G-pyrazol-4-yl)amino)quinazolin-2-yl)-2,5-diazabicyclo[2.2.1]heptan-2-yl)-2-methylpropan-1-one]",105%,,117%,80.0%,85.3%,
"CC(C)(C)OC(=O)N1CCC2(CC1)CN(c1nc(Nc3cc(C4CC4)[nH]n3)c3ccccc3n1)C2 [6d, sdqs-butyl 2-(4-((5-cyclopropyl-1G-pyrazol-3-yl)amino)quinazolin-2-yl)-2,7-diazaspiro[3.5]nonane-7-carboxylate]",88.6%,,48%,96.4%,104%,
